Data reported in patent US6410546B1, “Use of MKC-442 in combination with other antiviral agents” (Triangle Pharmaceuticals, Inc., priority 1997, dated 2002).

Assays:
HIV [1] = details: as reported in the prior art; cited from earlier work
HIV [2] = assay: Phase I/II double-blind, placebo controlled trial of repeated multiple oral doses
Procedure: Preliminary data from a Phase I/II double-blind, placebo controlled trial designed to evaluate the safety and efficacy of repeated multiple oral doses of MKC-442 in HIV-infected patients has now also been evaluated. A total of 49 patients were treated with MKC-442 for up to two months. Doses ranging from 100 mg to 1000 mg twice a day were given to groups of six to eight patients at each dosage level.

[3] = Phase I study, single escalating doses: pharmacokinetics and tolerance; format: in vivo, HIV-infected volunteers
From the text: A Phase I study evaluated the pharmacokinetics and tolerance of single escalating doses of MKC-442 in HIV-infected volunteers.

in vivo = assay: in vivo; design: species or system rats; details: rat
From the text: In rats, for example, the concentration of MKC-442 in the brain was 100% of that seen in the plasma.

[4] = system: wild-type (drug-sensitive) and several mutant strains of HIV; assay: Cell culture assay systems, inhibition of HIV replication (alone and in drug combinations); format: cell-based
From the text: MKC-442, although a nucleoside analogue, functions as a non-nucleoside reverse transcriptase inhibitor. It is considered an allosteric inhibitor because it appears to exert its activity by binding to an “allosteric position”, i.e., one other than the binding site, of the enzyme.

Nc1ccn(C2CSC(CO)O2)c(=O)n1 (racemic) [BCH-189, 2-hydroxymethyl-5-(cytosin-1-yl)-1,3-oxathiolane]
activity against HIV (HIV [1]): approximately the same activity against HIV as AZT | toxicity (HIV [1]): little toxicity

Nc1nc(=O)n([C@@H]2CS[C@H](CO)O2)cc1F (relative stereo) [FTC, cis-2-hydroxymethyl-5-(5-fluorocytosin-1-yl)-1,3-oxathiolane]
activity against HIV (HIV [1]): potent HIV activity

CCOCn1c(Cc2ccccc2)c(C(C)C)c(=O)[nH]c1=O [MKC-442, 6-benzyl-1-(ethoxymethyl)-5-isopropyluracil]
viral load reduction (average) (HIV [2]; 705 mg and 1000 mg twice a day, all patients, after one week): 96% | tolerability (HIV [2]; over 308 patient-weeks of drug exposure, 100 mg to 1000 mg twice a day): well tolerated | concentrations of the drug in the plasma ([3]; groups receiving higher doses, compared with levels required to suppress 90% of the virus in culture): mich higher than the levels required to suppress 90% of the virus in culture | tolerance ([3]; single escalating doses, HIV-infected volunteers): generally well tolerated | Kp (in vivo): 1 | penetration into the central nervous system (in vivo): excellent | oral bioavailability (in vivo; po): good | combination effect on HIV replication ([4]; three drug combination with AZT and saquinavir): synergistic inhibition | combination effect on HIV replication ([4]; two drug combination with AZT): synergistic inhibition | combination effect on HIV replication ([4]; two drug combination with DDI): synergistic inhibition | potency compared with nevirapine ([4]; wild-type and mutant strains of HIV): greater potency than nevirapine | ability to inhibit HIV replication ([4]; wild-type and mutant strains resistant to established non-nucleoside reverse transcriptase inhibitors): retained much of its ability to inhibit HIV replication
